Each structure is given as a SMILES string. Where only a bound is given, the exact number is not on record here.

One compound from US8138315B2, “Anti-alpha V immunoliposome compositions, methods and uses” (Centocor Ortho Biotech Inc., priority 2007, dated 2012) can be followed below.

Test [1] has as its system murine melanoma cell line, B16F10. As to the kind of experiment: Cytotoxicity assay (cell viability, CellTiter 96), negative control. It is filed as cell-based. Also on record: unit not given beside the values. Conditions: Murine melanoma B16-F10; 10 minutes at 37° C., washed, plated 3 and 6 days.
In the next test the test system is A375.S2 cells. The test is described as follows: Binding and internalization of liposomes at 37° C., confocal microscopy. It is filed as cell-based, human. Conditions: 37° C. for 10 min, washed, incubated 1 hour. The procedure:
(§1) Several human tumor cells bearing human αVβ3/5 integrins were used: (1) A375.S2, human melanoma cell line; (2) MDA-MB-231, Human Breast Carcinoma Cell line; (3) A2780, Human Ovarian Carcinoma Cell line; (4) HT29, Human Colon Carcinoma Cell line; (5) A549, Human Lung Carcinoma Cell line.
Liposomes were prepared as described in Example 1, except in two aspects. First, Dextran Alexa Fluor 488 (Cat No. D-22910, from Molecular Probes) was included in the hydration buffer during the passive encapsulation step of liposome formation, and after the sizing step dialysis was used to remove any unencapsulated Alexa. Second, instead of inserting Fab-PEG-lipid into the liposome bilayer, maleimide-PEG-lipid (MalPEG-DSPE) was inserted into the liposome bilayer at approximately 800 MalPeg-DSPE per liposome at 60° C. for 1 Hr. The insertion step was followed by the conjugation of the Fab to the reactive end of the lipopolymer. The appropriate amount of Fab was added to the MalPEG-DSPE inserted liposomes to achieve a 90:1 anti-alphaV-Fab targeting ligands per liposome ratio. These liposomes were used in the binding and internalization studies described below. […]
A375.S2 cells were harvested by scraping and then resuspended to obtain individualized cells and rejuvenated for 1 hour, at 37° C. About 1 million cells of each tumor type were counted and distributed into individual centrifugation tubes. […]

Test [2] deals with A375.S2, human melanoma cell line. As to the kind of experiment: Cytotoxicity assay (cell viability, CellTiter 96). It is filed as cell-based. More on the design: unit not given beside the values. Conditions: 10 minutes at 37° C., washed, plated 3 and 6 days. As for the experimental part:
as §1
(§2) Cell viability was assayed using the CellTiter 96 AQueous One Solution Cell Proliferation Assay from Promega (Cat No. G3581). A Spectra Max 250 plate reader was used, with a reading wavelength of 490 nm. Confocal Microscopy was done using a Nikon, Eelipse, E600. An Eppendorf centrifuge 5804 was used.
(§3) Liposomes bearing 15:1, 40:1, 90:1 and 180:1 alpha-integrin Fab targeting ligands per liposome and containing doxorubicin were prepared as described in Example 1 and 2. These targeted-liposomes were used in the cytotoxicity assay using the various cells lines, as described below.
(§4) Cells were harvested by scraping and then resuspended at 37° C. for 1 hour to obtain individualized cells. About 1 million cells of each tumor type were counted and placed in individual centrifugation tubes. The tubes were centrifuged to obtain a cell pellet. The cells were then incubated with the targeted liposome compositions containing doxorubicin for 10 minutes at 37° C., with mild shaking, 140 rpm. Cells were treated with a quantity of liposomes sufficient to give a doxorubicin concentration of 40 μg/mL. […]

In test [3] the test system is A2780, Human Ovarian Carcinoma Cell line. As to the kind of experiment: Cytotoxicity assay (cell viability, CellTiter 96). Conditions: ovarian cancer A2780; 10 minutes at 37° C., washed, plated 3 and 6 days. It is filed as cell-based. More on the design: unit not given beside the values. As for the experimental part:
as §1, §2, §3, §4

For `COc1cccc2c1C(=O)c1c(O)c3c(c(O)c1C2=O)C[C@@](O)(C(=O)CO)C[C@@H]3O[C@H]1C[C@H](N)[C@H](O)[C@H](C)O1` [free dox, doxorubicin], the IC50 of doxorubicin in test [1], in test [2] and in test [3] was over 200 throughout. In addition, in the test with A375.S2 cells, the “binding and internalization into A375.S2 cells” value is given as “drug internalization is evident”.
